# Experiments:
# [1] = Y-maze test in scopolamine-induced cognitive impairment animal model; format: in vivo; conditions: 5 mg/kg
# Experimental: The Y-maze test is used to assess short-term memory and momentary spatial perception by evaluating the animal's ability to remember the previously explored arm, with higher memory performance indicated by a lower tendency to re-enter the same arm.
# Specifically, scopolamine, which induces memory impairment, was administered together with either saline (vehicle), a known treatment for cognitive impairment or AD (donepezil or decursin), or the strain of the present invention, followed by the Y-maze test.
# The Y-maze consists of three arms with dimensions of 40 cm in length, 3 cm in width, and 15 cm in height, with the angles between the arms set at 120°. […]
# The control and experimental groups were placed at the center of the Y-maze, where they were allowed to explore the maze for 8 minutes. The movement of each individual was analyzed using EthoVision XT16 (Noldus, USA). The experimental results were obtained as spontaneous alternation behavior (%) and calculated according to the following equation: […]
# [2] = Passive avoidance test in scopolamine-induced cognitive impairment animal model; format: in vivo, rodents; conditions: 5 mg/kg, 24 h after shock
# Excerpt: The passive avoidance test is a cognitive ability assessment experiment that utilizes the preference of rodents to stay in dark places.
# Specifically, saline (as a vehicle), donepezil (a therapeutic agent for cognitive impairment or AD), decursin (a functional ingredient recognized for improving cognitive function), or the strain of the present invention was co-administered with scopolamine which induces memory impairment, followed by the passive avoidance test. […]
# The control and experimental groups were placed in chambers consisting of a bright chamber and a dark chamber of the same size. […] After 24 hours, the animals were again placed in the bright chamber, and the time taken to enter the dark chamber was measured for up to 300 seconds to evaluate memory.
Compound,increase in spontaneous alternation behavior compared to vehicle-treated group (G2) [1] [fold],memory recovery [2]
CC(C)=CC(=O)O[C@H]1Cc2cc3ccc(=O)oc3cc2OC1(C)C [decursin],~1.3,about 87%
COc1cc2c(cc1OC)C(=O)C(CC1CCN(Cc3ccccc3)CC1)C2 (stereo not shown) [donepezil],~1.3,about 74%

# Source: US20260151441A1, “NOVEL USE OF LACTOBACILLUS DELBRUECKII SUBSP. LACTIS STRAIN” (CKD BIO CORPORATION, priority 2022, published 2026)
